Assay results: PubChem BioAssay AID1259411 (Chemical Carcinogenesis Research Information System (CCRIS), 2018)
Activity calls are given as the source filed them. No rule for the calls is given here.

System: rodent carcinogenicity bioassays, tumor incidence
Assay: CCRIS carcinogenicity studies
Summary of the method: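 NCI-built, expert-reviewed records of carcinogenicity and related test outcomes (mutagenicity, tumor promotion/inhibition) compiled from published and report sources, historical span 1985-2011, not updated.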

**Q.** With O=S(=O)(O)OCc1c2ccccc2c2ccc3cccc4ccc1c2c43 as the molecule, how does the carcinogen call (Species: MOUSE, Strain/Sex: B6C3F1/MALE, Route: INTRAPERITONEAL, Dose: 0, 0.0025 UMOL/G ONCE AT 12 DAYS OF AGE (STUDY DURATION: 10 MO), Tumor Site: Type of Lesion: LIVER: HEPATOMA) read?
**A.** Its carcinogen call is “active; positive”.

**Q.** What about the carcinogen call (Species: RAT, Strain/Sex: SPRAGUE-DAWLEY/FEMALE, Route: SUBCUTANEOUS, Dose: 0, 0.2 UMOL 3/WK FOR 20 DOSES (STUDY DURATION: 52 WK), Tumor Site: Type of Lesion: INJECTION SITE: SARCOMA) of the same molecule?
**A.** The carcinogen call was “active; positive”.

**Q.** Which carcinogen call (Species: RAT, Strain/Sex: STRAIN-CD/FEMALE, Route: ORAL, Dose: 25000, 50000 PPM IN DIET FOR 78 WK) does the source give for O=C1OCCO1 here?
**A.** The carcinogen call was “inactive; negative”.

**Q.** And the carcinogen call (Species: RAT, Strain/Sex: STRAIN-CD/MALE, Route: ORAL, Dose: 25000, 44360 PPM IN DIET FOR 78 WK, TWA)?
**A.** The carcinogen call was “inactive; negative”.

**Q.** How did the carcinogen call (Species: MOUSE, Strain/Sex: B6C3F1/FEMALE, Route: ORAL, Dose: 0, 600, 3000, 6000 PPM IN DIET FOR 103 WK (STUDY DURATION: 106 WK), Dose: 0, 600, 3000, 6000 PPM IN DIET FOR 103 WK (STUDY DURATION: 106 WK)) turn out when CC(=O)Nc1ccc(O)cc1 was run?
**A.** Its carcinogen call is “inactive; negative”.

**Q.** And the carcinogen call (Species: MOUSE, Strain/Sex: B6C3F1/MALE, Route: ORAL, Dose: 0, 600, 3000, 6000 PPM IN DIET FOR 103 WK (STUDY DURATION: 106 WK), Dose: 0, 600, 3000, 6000 PPM IN DIET FOR 103 WK (STUDY DURATION: 106 WK))?
**A.** Its carcinogen call is “inactive; negative”.

**Q.** What about the carcinogen call (Species: MOUSE, Strain/Sex: B6C3F1/MALE, Route: ORAL, Dose: 0, 5000, 10000 PPM IN DIET BEGINNING AT 6 WK OF AGE AND CONTINUING FOR 70 WK (STUDY DURATION: 72 WK), Dose: 0, 5000, 10000 PPM IN DIET BEGINNING AT 6 WK OF AGE AND CONTINUING FOR 70 WK (STUDY DURATION: 72 WK)) of the same molecule?
**A.** The carcinogen call was “inactive; negative”.

**Q.** And the carcinogen call (Species: MOUSE, Strain/Sex: STRAIN-IF/FEMALE, Route: ORAL, Dose: 0, 0.5, 1% IN DIET FOR 18 MO (STUDY DURATION: 18 MO), Dose: 0, 0.5, 1% IN DIET FOR 18 MO (STUDY DURATION: 18 MO), Tumor Site: Type of Lesion: LIVER: HEPATOCELLULAR CARCINOMA OR ADENOMA)?
**A.** Its carcinogen call is “active; positive”.

**Q.** What about the carcinogen call (Species: MOUSE, Strain/Sex: STRAIN-IF/MALE,FEMALE, Route: ORAL, Dose: 0.5, 1.0% IN DIET FOR 18 MO, Tumor Site: Type of Lesion: LIVER: HEPATOCELLULAR ADENOMA, CARCINOMA) of the same molecule?
**A.** Its carcinogen call is “active; positive”.

**Q.** And the carcinogen call (Species: MOUSE, Strain/Sex: STRAIN-IF/MALE, Route: ORAL, Dose: 0, 0.5, 1% IN DIET FOR 18 MO (STUDY DURATION: 18 MO), Dose: 0, 0.5, 1% IN DIET FOR 18 MO (STUDY DURATION: 18 MO), Tumor Site: Type of Lesion: LIVER: HEPATOCELLULAR CARCINOMA, HEPATOCELLULAR ADENOMA OR CARCINOMA)?
**A.** The carcinogen call was “active; positive”.

**Q.** And the carcinogen call (Species: RAT, Strain/Sex: F344/FEMALE, Route: ORAL, Dose: 0, 0.65, 1.3% IN DIET FOR 104 WK (STUDY DURATION: 130 WK), Dose: 0, 0.65, 1.3% IN DIET FOR 104 WK (STUDY DURATION: 130 WK))?
**A.** Its carcinogen call is “inactive; negative”.

**Q.** What about the carcinogen call (Species: RAT, Strain/Sex: F344/FEMALE, Route: ORAL, Dose: 0, 600, 3000, 6000 PPM IN DIET FOR 103 WK (STUDY DURATION: 106 WK), Dose: 0, 600, 3000, 6000 PPM IN DIET FOR 103 WK (STUDY DURATION: 106 WK), Tumor Site: Type of Lesion: MULTIPLE ORGANS: MONONUCLEAR CELL LEUKEMIA) of the same molecule?
**A.** Its carcinogen call is “equivocal”.

**Q.** And the carcinogen call (Species: RAT, Strain/Sex: F344/MALE, Route: ORAL, Dose: 0, 0.45, 0.9% IN DIET FOR 104 WK (STUDY DURATION: 130 WK), Dose: 0, 0.45, 0.9% IN DIET FOR 104 WK (STUDY DURATION: 130 WK))?
**A.** Its carcinogen call is “inactive; negative”.

**Q.** What about the carcinogen call (Species: RAT, Strain/Sex: F344/MALE, Route: ORAL, Dose: 0, 600, 3000, 6000 PPM IN DIET FOR 103 WK (STUDY DURATION: 106 WK), Dose: 0, 600, 3000, 6000 PPM IN DIET FOR 103 WK (STUDY DURATION: 106 WK)) of the same molecule?
**A.** Its carcinogen call is “inactive; negative”.

**Q.** Which carcinogen call (Species: HAMSTER, Strain/Sex: SYRIAN/MALE, Route: GAVAGE, Dose: 0, 2 MG/WK FOR 54 OR 64 WK (STUDY DURATION: 92 WK)) does the source give for C=CC(OCC)OCC here?
**A.** The carcinogen call was “inactive; negative”.

**Q.** And the carcinogen call (Species: RAT, Strain/Sex: F344/FEMALE, Route: ORAL, Dose: 0, 470, 1200 MG/L IN DRINKING WATER 5 D/WK FOR 100 WK (STUDY DURATION: 130 WK), Dose: 0, 470, 1200 MG/L IN DRINKING WATER 5 D/WK FOR 100 WK (STUDY DURATION: 130 WK))?
**A.** Its carcinogen call is “inactive; negative”.

**Q.** What about the carcinogen call (Species: RAT, Strain/Sex: F344/MALE, Route: ORAL, Dose: 0, 470, 1200 MG/L IN DRINKING WATER 5 D/WK FOR 100 WK (STUDY DURATION: 130 WK), Dose: 0, 470, 1200 MG/L IN DRINKING WATER 5 D/WK FOR 100 WK (STUDY DURATION: 130 WK)) of the same molecule?
**A.** The carcinogen call was “inactive; negative”.

**Q.** For ClCC(Br)CBr (stereo not given), which carcinogen call (Species: MOUSE, Strain/Sex: B6C3F1/FEMALE, Route: GAVAGE, Dose: 0, 110, 209 MG/KG, TWA, Dose: 0, 110, 209 MG/KG, TWA, Tumor Site: Type of Lesion: STOMACH: SQUAMOUS CELL CARCINOMA) is on record?
**A.** Its carcinogen call is “active; positive”.

**Q.** What about the carcinogen call (Species: MOUSE, Strain/Sex: B6C3F1/FEMALE, Route: INHALATION, Dose: 0, 0.6, 3.0 PPM 6 HR/D, 5 D/WK FOR 76-103 WK, Dose: 0, 0.6, 3.0 PPM 6 HR/D, 5 D/WK FOR 76-103 WK, Tumor Site: Type of Lesion: NASAL CAVITY: CARCINOMA (NOS), SQUAMOUS CELL CARCINOMA, SQUAMOUS CELL CARCINOMA OR SQUAMOUS CELL PAPILLOMA, ADENOCARCINO) of the same molecule?
**A.** Its carcinogen call is “active; positive”.

**Q.** What about the carcinogen call (Species: MOUSE, Strain/Sex: B6C3F1/MALE, Route: GAVAGE, Dose: 0, 114, 219 MG/KG, TWA, Dose: 0, 114, 219 MG/KG, TWA, Tumor Site: Type of Lesion: STOMACH: SQUAMOUS CELL CARCINOMA) of the same molecule?
**A.** Its carcinogen call is “active; positive”.

**Q.** And the carcinogen call (Species: MOUSE, Strain/Sex: B6C3F1/MALE, Route: INHALATION, Dose: 0, 0.6, 3.0 PPM 6 HR/D, 5 D/WK FOR 76 WK, Dose: 0, 0.6, 3.0 PPM 6 HR/D, 5 D/WK FOR 76 WK, Tumor Site: Type of Lesion: NASAL CAVITY: CARCINOMA (NOS), SQUAMOUS CELL CARCINOMA, ADENOMATOUS POLYP (NOS), LUNG: ALVEOLAR/BRONCHIOLAR ADENOMA, ALV)?
**A.** The carcinogen call was “active; positive”.

**Q.** And the carcinogen call (Species: RAT, Strain/Sex: F344/FEMALE, Route: INHALATION, Dose: 0, 0.6, 3.0 PPM 6 HR/D, 5 D/WK FOR 84-103 WK, Dose: 0, 0.6, 3.0 PPM 6 HR/D, 5 D/WK FOR 84-103 WK, Tumor Site: Type of Lesion: NASAL CAVITY: ADENOMATOUS POLYP (NOS), ADENOMA (NOS), SQUAMOUS CELL PAPILLOMA, CARCINOMA (NOS), ADENOCARCINOMA (NOS), NA)?
**A.** Its carcinogen call is “active; positive”.

**Q.** What about the carcinogen call (Species: RAT, Strain/Sex: F344/MALE, Route: INHALATION, Dose: 0, 0.6, 3.0 PPM 6 HR/D, 5 D/WK FOR 84-103 WK, Dose: 0, 0.6, 3.0 PPM 6 HR/D, 5 D/WK FOR 84-103 WK, Tumor Site: Type of Lesion: NASAL CAVITY: ADENOMATOUS POLYP (NOS), ADENOMA (NOS), SQUAMOUS CELL PAPILLOMA, SQUAMOUS CELL CARCINOMA, CARCINOMA (NOS)) of the same molecule?
**A.** The carcinogen call was “active; positive”.

**Q.** What about the carcinogen call (Species: RAT, Strain/Sex: OSBORNE-MENDEL/FEMALE, Route: GAVAGE, Dose: 0, 15, 29 MG/KG, TWA, Dose: 0, 15, 29 MG/KG, TWA, Tumor Site: Type of Lesion: STOMACH: SQUAMOUS CELL CARCINOMA, SQUAMOUS CELL PAPILLOMA, MAMMARY GLAND: ADENOCARCINOMA) of the same molecule?
**A.** Its carcinogen call is “active; positive”.

**Q.** What about the carcinogen call (Species: RAT, Strain/Sex: OSBORNE-MENDEL/MALE, Route: GAVAGE, Dose: 0, 15, 29 MG/KG, TWA, Dose: 0, 15, 29 MG/KG, TWA, Tumor Site: Type of Lesion: STOMACH: SQUAMOUS CELL CARCINOMA, MULTIPLE SITES: HEMANGIOSARCOMA OR HEMANGIOMA) of the same molecule?
**A.** The carcinogen call was “active; positive”.
